Results on four molecules are retold here after patent US20240115569A1, “METHODS FOR BLOCKING HER2 SIGNALING FOR TREATING PULMONARY FIBROSIS” (CEDARS-SINAI MEDICAL CENTER, priority 2021, published 2024).

Data set [1] relates to human lung fibroblasts. The data set can be described thus: Fibroblast migration assay (BioCoat control insert). In kind it is cell-based. The conditions noted are these: 24 hours, PDGF-BB chemoattractant. On the procedure:
(§1) Fibroblast migration and invasion assays were performed as previously described (Geng et al., 2019; L1 et al., 2011). In brief, fibroblasts were loaded into the top chamber of a Corning BioCoat Control cell culture insert containing a polycarbonate membrane with 8.0 µm pores (for migration) or a BioCoat Matrigel Invasion Chamber (BD Sciences; for invasion). All other settings were the same for the cell migration assay as for the cell invasion assay.
(§2) PDGF-BB (10 ng/ml, Peprotech) was used as a chemoattractant in the bottom chamber. After 24 hours culture at 37° C. with 5% CO2, invasive cells that had passed through the matrigel layer and clung to the bottom of the insert membrane were determined as invasive fibroblasts. Cells remaining in the upper chamber were defined as non-invasive fibroblasts. For quantification of the migration and invasion indices, the membrane filters containing cells were fixed and stained with the Protocol Hema 3 stain set (Thermo Fisher Scientific) and counted in 5 randomly chosen fields per filter from triplicate filters per sample at ×40 magnification. […] The cell migration or the cell invasion index was calculated as the number of cells attached to the bottom of control or Matrigel-coated membranes after 24 hours, normalized to respective control lung fibroblasts.

The test system of data set [2] is human lung fibroblasts. The data set can be described thus: Fibroblast invasion assay (BioCoat Matrigel Invasion Chamber). To be noted: 24 hours, PDGF-BB chemoattractant. In kind it is cell-based. On the procedure:
as §1, §2

A further data set concerns fibroblasts. The data set can be described thus: Calcein AM cell viability assay. The data set is classed as cell-based, human. To be noted: Lapatinib treated cells for 24 hours. On the procedure: Cell growth rate of si-CTL and si-FENDRR fibroblasts were measured by IncuCyte ZOOM Live Cell Analysis System (Essen BioScience). The viability of lapatinib-treated fibroblasts or control fibroblasts was examined by Calcein AM Cell Viability Assay Kit (Trevigen).

Data set [3] relates to NSG mice injected with SEMA7A high IPF fibroblasts. The data set can be described thus: Humanized SCID mouse model of IPF. The data set is classed as in vivo. The conditions noted are these: assessed on day 63. On the procedure:
Humanized SCID mouse model of IPF was generated as previously reported (Trujillo et al., 2010). Female NOD-scid-IL2Rγc−/− (NSG) mice (6 to 8 weeks old) were purchased from the Jackson Laboratory. The NSG mice received single-cell preparations of SEMA7A high and negative IPF lung fibroblasts (0.5×10^6 cells/mouse) via tail vein injection. […] For the anti-ERBB2 antibody studies, mice were injected with IgG1 (InVivoPlus human IgG1 isotype control, Bio X Cell) or anti-HER2 (Pertuzumab, kindly provided by Genentech) twice per week, 100 μg/mouse from day 35 to 63. Lung fibrosis was assessed on day 63 after fibroblast transfer. The left lobe was used for histology and right lobes were used for hydroxyproline assay after right ventricle perfusion to clear the blood in lungs.

The next data set deals with C57BL/6J mice. The data set can be described thus: Bleomycin-induced lung fibrosis. The data set is classed as in vivo, mouse. The conditions noted are these: 1.25 U/kg bleomycin intratracheal; gavaged every day; 21 days; vs vehicle; trichrome and hydroxyproline.
The next data set relates to SEMA7A. The data set can be described thus: Western blot of SEMA7A in IPF lung fibroblasts. The data set is classed as cell-based, human. The conditions noted are these: increasing concentration.
The next data set deals with FOXF1. In words: Western blot of FOXF1 in IPF lung fibroblasts. The data set is classed as cell-based, human. To be noted: increasing concentration.
Another data set deals with SEMA7A, F3, and ITGA6. The data set can be described thus: Flow cytometry of cell surface markers of invasive fibroblasts. In kind it is cell-based, human. To be noted: IPF lung fibroblasts after Lapatinib treatment. On the technique in general: In flow cytometry, cells or beads pass a laser one at a time.
The next data set deals with IPF lung fibroblasts. The data set can be described thus: qRT-PCR of genes specific to invasive or non-invasive fibroblasts. The data set is classed as cell-based, human. The conditions noted are these: IPF lung fibroblasts after Lapatinib treatment. On the procedure:
Small interfering RNA (siRNA) knockdown assays were performed using Lipofectamin RNAiMAX Transfection Reagent following the manufacturer's protocol (Thermo Fisher Scientific). Commercial si-RNA used were listed: si-FOXF1 (Santa Cruz Biotechnology, sc-60655), si-CREBRF (Santa Cruz Biotechnology, sc-91839), si-TSC22D1 (Thermo Fisher Scientific, 16708), si-MXI1 (Santa Cruz Biotechnology, sc-35835), si-KLF9 (Santa Cruz Biotechnology, sc-37716), si-NFE2L2 (Santa Cruz Biotechnology, sc-37030), si-HMGA2 (Santa Cruz Biotechnology, sc-37994) si-DPF3 (Santa Cruz Biotechnology, sc-92150) and si-LIN00152 (Dharmacon, SMARTpool: Lincode CYTOR siRNA). Si-FENDRR were synthesized by Integrated DNA Technologies (IDT) (Table 1). RNA was isolated using RNeasy Mini kit (QIAGEN) following the manufacturer's protocol. […] Reverse Transcriptase (Progema) was used for cDNA synthesis. Gene expression was measured relative to the endogenous reference gene GAPDH using the comparative ACT method. The primer sequences used were listed (Table 1).

Another data set deals with IPF. To be noted: IPF patients; cited from earlier work.
[4] abbreviates: different doses of Lapatinib or DMSO.

Description for C57BL/6J mice: Control animals received saline alone. The tracheostomy site was sutured, and the animals were allowed to recover. […] Mice were euthanized 21 days after bleomycin treatment, and lung tissues were collected for experiments.
Protocol for SEMA7A, F3, and ITGA6: Briefly, cells were resuspended in Hank's balanced saline solution supplemented with 2% FBS, 10 mM […] , 0.1 mM EDTA, Antibiotic-Antimycotic. […] 4',6-diamidino-2-phenylindole (DA-PI) was used to discriminate dead cells.

As to `CS(=O)(=O)CCNCc1ccc(-c2ccc3ncnc(Nc4ccc(OCc5cccc(F)c5)c(Cl)c4)c3c2)o1` [Lapatinib], in the data set with human lung fibroblasts [1] (setting [4]), the fibroblast migration result was “inhibited fibroblast migration and invasion in a dose dependent manner”. In the data set on human lung fibroblasts [2] (setting [4]), the fibroblast invasion entry is “inhibited fibroblast migration and invasion in a dose dependent manner”. Also, in the data set on fibroblasts, the fibroblast viability result was “no effect on fibroblast viability”. Besides, the lung fibrosis result in data set [3] (50 mg/kg every other day from day 35 to day 63, vs vehicle, trichrome and hydroxyproline) was “significantly decreased lung fibrosis”. The bleomycin-induced lung fibrosis result in the data set with C57BL/6J mice was “blunted bleomycin-induced lung fibrosis”. The “total protein levels of SEMA7A” value with SEMA7A is reported as “decreased”. Besides, the “total protein levels of FOXF1” value in the data set on FOXF1 is “increased”. The “cell surface expression of SEMA7A, F3, and ITGA6” value in the data set on SEMA7A, F3, and ITGA6 is given as “decreased protein levels”. Besides, the “RNA levels of other representative genes specific to invasive or non-invasive fibroblasts” value in the data set with IPF lung fibroblasts was “reversed to a non-invasive state”.
On to `COC(=O)c1ccc2c(c1)NC(=O)/C2=C(\Nc1ccc(N(C)C(=O)CN2CCN(C)CC2)cc1)c1ccccc1` [nintedanib], for which, in the data set on IPF, the “lung function / fibrosis” value is given as “neither of these agents improves lung function or reduces fibrosis” and the “rate of decline in the forced vital capacity” value is recorded as “reduce the rate of decline in the forced vital capacity”.
Take `Cc1ccc(=O)n(-c2ccccc2)c1` [pirfenidone]: in the data set with IPF, the “lung function / fibrosis” value is listed as “neither of these agents improves lung function or reduces fibrosis” and the “rate of decline in the forced vital capacity” value is on record as “reduce the rate of decline in the forced vital capacity”.
Consider “Pertuzumab: humanized monoclonal antibody that binds to the extracellular domain II of HER2”, for which the fibroblast migration result in the data set with human lung fibroblasts [1] (Pertuzumab or IgG1) was “significantly reduced fibroblast migration and invasion”. For the same molecule, the fibroblast invasion entry in the data set with human lung fibroblasts [2] (Pertuzumab or IgG1) was “significantly reduced fibroblast migration and invasion”. Further, the lung fibrosis entry in data set [3] (100 μg/mouse twice per week from day 35 to 63, vs IgG1) was “significantly decreased lung fibrosis”.
